Experimental data reported in patent US11708357B2, “Crystal form of pyrrolidinyl urea derivative and application thereof” (ZHANGZHOU PIEN TZE HUANG PHARMACEUTICAL CO., LTD., priority 2020, dated 2023).

Target: T1, TrkA (Homo sapiens, UniProt P04629)
T1 construct: purchased Invitrogen PV4114
Test: TrkA enzyme activity test (HTRF)
Type: biochemical
Settings: 0.5 nM TrkA kinase, 90 μM ATP, 23° C. 90 minutes
Description: TK detection kit Cisbio-62TK0PEJ
50 mM Hepes (pH 7.5), 5 mM MgCl2 (magnesium chloride), 0.01 mM orthovanadate (sodium vanadate), 1% BSA (bovine serum albumin), 1 mM (dithiothreitol)
This experiment used Cisbio's homogeneous time-resolved fluorescence resonance energy transfer (HTRF® method) for activity test. In the test plate, the enzyme, biotin-labeled peptide substrate, ATP, and test compound were mixed, and incubated for reaction. After the reaction, ethylenediaminetetraacetic acid was added to terminate the reaction; at the same time, Eu-labeled antibody and streptavidin-labeled XL665 were added for reaction and detection. The data were expressed by the readings of the fluorescence signal at 665 nm and 620 nm, where a high ratio of 665 nm/620 nm indicated higher activity, and a low ratio of 665 nm/620 nm indicated inhibition of activity.
1. […]
2. […] 10 μL of stop solution containing 20 mM EDTA, 1.34 nM phosphorylated substrate antibody, and 100 nM streptavidin-labeled fluorescent molecule XL-665 was then added, incubated at 23° C. for 60 minutes; the signal was read with Envision;
3. The inhibition rate of the compound was calculated from the data read by the instrument, and the IC50 value was calculated using the mode 205 in XLFIT5 of IDBS.

T1 sequence (P04629 33-796): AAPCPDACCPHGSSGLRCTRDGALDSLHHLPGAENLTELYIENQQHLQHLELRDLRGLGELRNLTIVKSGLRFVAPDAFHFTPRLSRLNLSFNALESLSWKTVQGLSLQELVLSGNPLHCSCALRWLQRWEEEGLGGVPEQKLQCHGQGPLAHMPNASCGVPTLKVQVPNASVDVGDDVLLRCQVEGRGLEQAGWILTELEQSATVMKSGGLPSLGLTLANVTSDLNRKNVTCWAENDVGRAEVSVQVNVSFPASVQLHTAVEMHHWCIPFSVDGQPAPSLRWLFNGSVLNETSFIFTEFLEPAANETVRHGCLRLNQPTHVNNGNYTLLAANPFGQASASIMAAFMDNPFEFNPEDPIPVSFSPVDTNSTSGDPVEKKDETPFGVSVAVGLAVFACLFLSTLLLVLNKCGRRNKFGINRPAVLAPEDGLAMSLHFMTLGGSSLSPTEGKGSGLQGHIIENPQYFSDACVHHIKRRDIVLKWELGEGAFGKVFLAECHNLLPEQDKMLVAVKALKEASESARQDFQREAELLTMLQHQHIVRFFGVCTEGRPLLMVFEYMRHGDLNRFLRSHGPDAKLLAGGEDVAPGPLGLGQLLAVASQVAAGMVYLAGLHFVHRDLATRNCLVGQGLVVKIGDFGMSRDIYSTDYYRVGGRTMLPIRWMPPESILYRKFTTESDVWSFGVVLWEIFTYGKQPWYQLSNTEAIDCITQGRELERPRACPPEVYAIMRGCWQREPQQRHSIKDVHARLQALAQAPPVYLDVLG

- IC50: 0.56 nM
SMILES: COCCN1C[C@@H](n2ccc(F)c2)[C@H](NC(=O)Nc2c(C)c(-c3cnc(C4(F)COC4)nc3)nn2-c2ccccc2)C1 [Compound of formula (I)]
